Measured values as given in BigSolDB 2.1.

O=C([O-])CCP(=O)([O-])c1ccccc1.[Na+].[Na+]
solubility (mole fraction) (in acetic acid, 293.15 K): 0.000543 | solubility (mole fraction) (in acetic acid, 298.15 K): 0.000554 | solubility (mole fraction) (in acetic acid, 303.15 K): 0.000569 | solubility (mole fraction) (in acetic acid, 308.15 K): 0.000581 | solubility (mole fraction) (in acetic acid, 313.15 K): 0.000603 | solubility (mole fraction) (in acetic acid, 318.15 K): 0.000626 | solubility (mole fraction) (in acetic acid, 323.15 K): 0.000644 | solubility (mole fraction) (in acetic acid, 328.15 K): 0.000663 | solubility (mole fraction) (in acetic acid, 333.15 K): 0.000703 | solubility (mole fraction) (in acetic acid, 343.15 K): 0.000742 | solubility (mole fraction) (in acetone, 293.15 K): 3.66e-05 | solubility (mole fraction) (in acetone, 298.15 K): 3.89e-05 | solubility (mole fraction) (in acetone, 303.15 K): 4.13e-05 | solubility (mole fraction) (in acetone, 308.15 K): 4.39e-05 | solubility (mole fraction) (in acetone, 313.15 K): 4.62e-05 | solubility (mole fraction) (in acetone, 318.15 K): 4.83e-05 | solubility (mole fraction) (in acetone, 323.15 K): 5.24e-05 | solubility (mole fraction) (in ethanol, 293.15 K): 7.03e-05 | solubility (mole fraction) (in ethanol, 298.15 K): 9.7e-05 | solubility (mole fraction) (in ethanol, 303.15 K): 0.000138 | solubility (mole fraction) (in ethanol, 308.15 K): 0.000197 | solubility (mole fraction) (in ethanol, 313.15 K): 0.000264 | solubility (mole fraction) (in ethanol, 318.15 K): 0.000352 | solubility (mole fraction) (in ethanol, 323.15 K): 0.000505 | solubility (mole fraction) (in ethanol, 328.15 K): 0.000728 | solubility (mole fraction) (in ethanol, 333.15 K): 0.000926 | solubility (mole fraction) (in ethanol, 343.15 K): 0.00164 | solubility (mole fraction) (in methanol, 293.15 K): 2.2e-05 | solubility (mole fraction) (in methanol, 298.15 K): 2.26e-05 | solubility (mole fraction) (in methanol, 303.15 K): 2.28e-05 | solubility (mole fraction) (in methanol, 308.15 K): 2.3e-05 | solubility (mole fraction) (in methanol, 313.15 K): 2.34e-05 | solubility (mole fraction) (in methanol, 318.15 K): 2.4e-05 | solubility (mole fraction) (in methanol, 323.15 K): 2.44e-05 | solubility (mole fraction) (in water, 293.15 K): 0.000904 | solubility (mole fraction) (in water, 298.15 K): 0.000906 | solubility (mole fraction) (in water, 303.15 K): 0.000908 | solubility (mole fraction) (in water, 308.15 K): 0.000909 | solubility (mole fraction) (in water, 313.15 K): 0.000911 | solubility (mole fraction) (in water, 318.15 K): 0.000912 | solubility (mole fraction) (in water, 323.15 K): 0.000913 | solubility (mole fraction) (in water, 328.15 K): 0.000915 | solubility (mole fraction) (in water, 333.15 K): 0.000916 | solubility (mole fraction) (in water, 343.15 K): 0.000918

O=C(O)CCP(=O)([O-])c1ccccc1.[Na+]
solubility (mole fraction) (in acetic acid, 293.15 K): 0.0169 | solubility (mole fraction) (in acetic acid, 298.15 K): 0.0205 | solubility (mole fraction) (in acetic acid, 303.15 K): 0.0225 | solubility (mole fraction) (in acetic acid, 308.15 K): 0.0264 | solubility (mole fraction) (in acetic acid, 313.15 K): 0.0283 | solubility (mole fraction) (in acetic acid, 318.15 K): 0.0312 | solubility (mole fraction) (in acetic acid, 323.15 K): 0.0357 | solubility (mole fraction) (in acetic acid, 328.15 K): 0.0404 | solubility (mole fraction) (in acetic acid, 333.15 K): 0.0471 | solubility (mole fraction) (in acetic acid, 343.15 K): 0.062 | solubility (mole fraction) (in acetone, 293.15 K): 7e-05 | solubility (mole fraction) (in acetone, 298.15 K): 0.00011 | solubility (mole fraction) (in acetone, 303.15 K): 0.00016 | solubility (mole fraction) (in acetone, 308.15 K): 0.00024 | solubility (mole fraction) (in acetone, 313.15 K): 0.00035 | solubility (mole fraction) (in acetone, 318.15 K): 0.00051 | solubility (mole fraction) (in acetone, 323.15 K): 0.00075 | solubility (mole fraction) (in ethanol, 293.15 K): 0.00065 | solubility (mole fraction) (in ethanol, 298.15 K): 0.00076 | solubility (mole fraction) (in ethanol, 303.15 K): 0.00095 | solubility (mole fraction) (in ethanol, 308.15 K): 0.00106 | solubility (mole fraction) (in ethanol, 313.15 K): 0.00122 | solubility (mole fraction) (in ethanol, 318.15 K): 0.00166 | solubility (mole fraction) (in ethanol, 323.15 K): 0.00199 | solubility (mole fraction) (in ethanol, 328.15 K): 0.00223 | solubility (mole fraction) (in ethanol, 333.15 K): 0.00273 | solubility (mole fraction) (in ethanol, 343.15 K): 0.00413 | solubility (mole fraction) (in ethyl acetate, 293.15 K): 0.00039 | solubility (mole fraction) (in ethyl acetate, 298.15 K): 0.00051 | solubility (mole fraction) (in ethyl acetate, 303.15 K): 0.000685 | solubility (mole fraction) (in ethyl acetate, 308.15 K): 0.00096 | solubility (mole fraction) (in ethyl acetate, 313.15 K): 0.00117 | solubility (mole fraction) (in ethyl acetate, 318.15 K): 0.00165 | solubility (mole fraction) (in ethyl acetate, 323.15 K): 0.00204 | solubility (mole fraction) (in ethyl acetate, 328.15 K): 0.00285 | solubility (mole fraction) (in ethyl acetate, 333.15 K): 0.00384 | solubility (mole fraction) (in ethyl acetate, 343.15 K): 0.00602 | solubility (mole fraction) (in methanol, 293.15 K): 0.00612 | solubility (mole fraction) (in methanol, 298.15 K): 0.00671 | solubility (mole fraction) (in methanol, 303.15 K): 0.00719 | solubility (mole fraction) (in methanol, 308.15 K): 0.00779 | solubility (mole fraction) (in methanol, 313.15 K): 0.00831 | solubility (mole fraction) (in methanol, 318.15 K): 0.009 | solubility (mole fraction) (in methanol, 323.15 K): 0.00993 | solubility (mole fraction) (in water, 293.15 K): 0.0196 | solubility (mole fraction) (in water, 298.15 K): 0.0201 | solubility (mole fraction) (in water, 303.15 K): 0.0214 | solubility (mole fraction) (in water, 308.15 K): 0.0222 | solubility (mole fraction) (in water, 313.15 K): 0.0232 | solubility (mole fraction) (in water, 318.15 K): 0.0248 | solubility (mole fraction) (in water, 323.15 K): 0.0263 | solubility (mole fraction) (in water, 328.15 K): 0.0277 | solubility (mole fraction) (in water, 333.15 K): 0.0295 | solubility (mole fraction) (in water, 343.15 K): 0.0316
